Experimental data: PMC8344021, “Discovery of Small Molecule Bak Activator for Lung Cancer Therapy” (Theranostics, 2021)
Entries after “also recorded” stand apart in the source; their conditions may differ.

How the values were obtained:
[1] = tested on: Cyt c release in A549 cells; experiment: Cyt c release from mitochondria in cells (subcellular fractionation, Western blot); format: cell-based, human; conditions: 24h
Description: To further test whether Bak is required for BKA-073 induction of Cyt c release, A549 parental, Bak^-/-, Bax^-/- and DKO cells were treated with BKA-073 (1 μM) for 24h, followed by analysis of Cyt c release from mitochondria. […] To further test whether BKA-073 directly induces Cyt c release from isolated mitochondria in a Bak- but not Bax-dependent fashion, purified mitochondria were isolated from A549 parental, Bak^-/-, Bax^-/- and DKO cells. The isolated mitochondria were treated with BKA-073 (1 μM) for 30 min at 30 °C. After centrifugation at 13000 g for 5 min, Cyt c in the supernatant (i.e., Cyt c release) was analyzed by Western blot. […]
Bak proteins was eluted with buffer B (20 mM Tris, pH 8.0, 120 mM NaCl, 300 mM imidazole, 10% glycerol with protease inhibitor). The elution peak of interest was checked by SDS -PAGE electrophoresis. The purified mouse Bak protein was dialyzed with buffer A . […]
Subcellular fractionation
Cells (2 ×107) were washed with cold 1× PBS and resuspended in isotonic mitochondrial buffer (210 mM mannitol, 70 mM sucrose, 1 mM EGTA, 10 mM Hepes, pH 7.5) containing 10% protease inhibitor mixture set I, homogenized with a polytron homogenizer, and then centrifuged at 1000 × g for 5 min to remove the nuclei and unbroken cells. The supernatant was centrifuged at 13,000 × g for 10 min to pellet mitochondria. […] Cyt c was analyzed

[2] = molecular target: T1, human Bak protein (WT) (Homo sapiens, UniProt Q16611); experiment: Isothermal titration calorimetry (ITC); conditions: 25 °C, one-site binding
T1 construct: His6; made in house; host or cells: Escherichia coli BL21 DE3
Description: The binding affinity of BKA-073 with Bak protein was examined by isothermal titration calorimetry (ITC) assay as described, [28]. ITC assay was carried out in the auto-iTC200 instrument (MicroCal, GE) at 25 °C. Purified recombinant human or mouse Bak protein was loaded into a 96 Deepwell PP plate. BKA-073 compound was then titrated stepwise into the protein for a total of 16 injections. Reference power and initial delay were set as 5 µCal/sec and 60s, respectively. A string speed of 750 rpm was used for the ITC measurements. The binding constant (Kd) value was determined by fitting the titration curve to a one-site binding mode, using the Origin software provided by the manufacturer.
To confirm the binding of BKA-073 with Bak, we first conducted a competitive fluorescence polarization (FP) assay using purified human Bak protein, fluorescent Bak BH3 domain peptide, and BKA-073 as described, [37]-[40]. […] There are multiple amino acid differences in the BH3 domains between Bak and other Bcl2 family members, which helps to explain why BKA-073 only binds to Bak but not to other Bcl2 family members (i.e. Bax, Bcl2, Bcl-XL, Bcl-w and Mcl-1). In addition to the FP assay, isothermal titration calorimetry (ITC) was also employed to measure Bak/BKA-073 binding. […] In addition to human Bak/BKA-073 binding, we measured mouse Bak/BKA-073 binding using ITC.

[3] = Toxicity in mice bearing A549 xenografts; format: in vivo, Nu/Nu nude mice; conditions: 28 days
Description: To assess whether BKA-073 induced suppression of tumor growth occurs through activation of Bak and apoptosis in vivo, representative samples from harvested tumor tissues were analyzed by cross-linking with BMH for Bak oligomerization or by immunohistochemistry (IHC) for active caspase 3 as described, [29], [47]. […] There were no decreases in white cells (WBC), red blood cells (RBC) and platelets (PLT) in blood.
Figure 5 Toxicity of BKA-073 in vivo. (A-C) Body weight (A), blood analysis (B) and H&E histology of various organs (C) from mice bearing A549 xenografts after treatment with increasing doses (0, 5, 10, 15mg/kg/d) of BKA-073 for 28 days. […]
Whole blood (250µL) was collected in EDTA-coated tubes via cardiac puncture of anesthetized
mice for hematology studies. […]

T1 sequence (Q16611 1-186 limits assumed): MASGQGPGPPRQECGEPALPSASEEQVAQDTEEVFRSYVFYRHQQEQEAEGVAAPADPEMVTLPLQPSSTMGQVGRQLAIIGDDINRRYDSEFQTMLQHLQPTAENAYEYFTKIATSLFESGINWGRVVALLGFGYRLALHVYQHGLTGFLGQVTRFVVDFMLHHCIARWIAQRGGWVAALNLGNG

COc1ccc2nc3ccccc3c(NCCNCC(C)O)c2c1 (centres unmarked) [BKA-073]
Cyt c release ([1]; A549 Bax-/- cells, 1 μM): Cyt c release was observed
Cyt c release ([1]; A549 parental cells): promoted Cyt c release from mitochondria; also recorded: Cyt c release was observed
Kd [2]: 88.6 ± 5.73 nM
body weight ([3]; 5, 10, 15mg/kg/d i.p.): No weight loss
kidney (BUN) and liver (ALT and AST) function ([3]; 5, 10, 15mg/kg/d i.p.): in the normal range
white cells (WBC), red blood cells (RBC) and platelets (PLT) in blood ([3]; 5, 10, 15mg/kg/d i.p.): no decreases
tolerability ([3]; 5-15mg/kg/d i.p.): well tolerated without significant toxicity
histopathology of normal tissues (heart, liver, lung, brain, spleen, kidney, intestine) ([3]; 5~15mg/kg/d i.p.): no evidence of normal tissue toxicities
